# Measurements published in patent publication US8106080B2, “Compositions and methods for enhancing nitric oxide delivery” (priority 2006, dated 2012).
# Read-outs that look alike come from different tables or passages of the source. Marks after values point to notes of the source that are not given here.
# Assays:
# [1] = tested on: EDL muscles from normal C57Black/6 mice; experiment: DNA synthesis ([3H]-thymidine) in whole-muscle EDL culture, normal mice; type: cell-based; conditions: NO donor alone; whole mouse EDL-muscle cultures; FIG. 2
# Description: The proposed model of satellite cell activation as a function of NO is supported by a study of the effect of two known NO donor compounds-ISDN and DPTA-on whole mouse EDL-muscle cultures (FIG. 2), which studies were performed using in vitro methods described below. Results are reported in dpm (“disintegrations per minute”) per amount of DNA (here μg). […] In all cases, each sample was assayed in duplicate for counts, and in triplicate for DNA content (micrograms), the latter according to a standard curve of 5 or more standard concentrations that was established with a regression line having r^2 in the linear regression analysis greater than 0.97 at each assay.
# Extensor digitorum longus (EDL) muscles were dissected cleanly and carefully from normal C57Black/6 mice (8 weeks old) without stretching or trauma that could easily activate satellite cells. Each muscle was aligned radially in one well of a 6-well Flex II culture plate (Flexcell International, N.C., USA), and the tendons were pinned so the muscle was at resting length. […]
# (§1) DNA was isolated from the tissues. DNA synthesis was assayed by scintillation counting in Ready Safe scintillation cocktail (Beckman), and the concentration of DNA in each sample was assayed using a fluorescence assay (calibrated against a standard curve). The data were calculated as DNA synthesis per microgram of DNA in each sample.
# [2] = tested on: EDL muscles from old (12-month-old) normal mice; experiment: DNA synthesis in whole-muscle EDL culture from 12-month-old mice; type: cell-based, mouse; conditions: MyoNovin higher dose of 2, L-NAME both doses (very high), FIG. 19
# Description: […] Each muscle was aligned radially in one well of a 6-well Flex II culture plate (Flexcell International, N.C., USA), and the tendons were pinned so the muscle was at resting length. The muscles were incubated in growth medium ([…], DMEM, containing 15% v/v horse serum (HyClone Laboratories Inc.) and 2% v/v chick embryo extract (ICN Biomedicals) at 37° C. in 5% CO2). Muscles in the wells were treated with or without an NO donor. [^3H]-Thymidine was added to the medium at the beginning of treatment, and cultures were maintained for 24 hours to allow incorporation of the isotope into new DNA. At the end of 24 hours, muscles were removed from wells, tendons were trimmed away, and the muscles were frozen at −20° C. for future analysis.
# as §1
# Data from an experiment on EDL muscles in culture, isolated from old (12-month-old) normal […] mice were conducted using the method described above for methocarbomol and ISDN.
# In this experiment, muscles were treated with MyoNovin (2 doses) or the NOS inhibitor, L-NAME (2 doses).
# liver tissue homogenate = experiment: EPR assay of NO release, liver homogenate; type: biochemical, mouse; conditions: MGD spin-trap, 1 hour at 37° C., FIG. 20
# Description: (§2) In the experiment liver and back muscle tissue taken from C57Black/6 mice were homogenized in ice-cold sucrose buffer. A small amount of MyoNovin was dissolved in dimethylsulfoxide and added to the tissue homogenates. An NO spin-trap molecule N-Methyl-D-glucamine dithiocarbamate (MGD) was added to the homogenate-MyoNovin mixture as a stable iron complex [10 μl of 50 mM MGD in saline; (containing MGD at 50 mM and Fe^2+ at 10 mM)] in order to trap any NO released from the tissue homogenate. The entire homogenate mixture plus NO spin-trap solution was then incubated for 1 hour at 37° C. After incubation, a sample of homogenate (16 μl) was loaded into a quartz capillary tube for determination of the EPR spectrum. EPR spectra were then obtained using a Bruker EMXEPR spectrometer (Bruker, Co., Billerica, Mass.) at room temperature (25° C.). The instrument settings were: 9.25 GHz microwave frequency; 100 kHz modulation frequency; 20 mW microwave power, 4 G modulation amplitude, 40 ms time constant, 42 s scan time, and 100 Gauss scan range, and 3410 G center field.
# (§3) FIG. 20 is a compilation of the spectra obtained. Curve A represents a blank control sample (the homogenate and NO spin-trap for the EPR assay, without the addition of MyoNovin). Curve B is an NO standard (homogenate and NO spin-trap for the EPR assay, bubbled with NO gas). […]
# mdx dystrophic mice = experiment: DNA synthesis in back muscle after topical application, mdx mice; type: in vivo, mouse; conditions: transdermal, FIG. 18
# Source text: Ointments were applied according to the following procedure. • 1. Animals were anesthetized with isoflurane and the mid-dorsal skin (on the back) was shaved, washed with soap and water, and air dried. • 2. The ointment was applied to the sterile pad on an adhesive bandage. Control bandages were coated with the ointment base only. After topical application in which the bandages were applied to the shaved back region, bandages were wrapped with medical adhesive. The animals had the Elizabethan collar fitted while under anesthesia, to prevent their later chewing at the adhesive tape. Eyes were irrigated regularly, as animals were unable to groom well while wearing the cone. • 3. Animals were treated for a total of 24 hours. There were no apparent effects of treatment on behaviour. • 4. Two hours before euthanasia, the mice were injected with 2 μCi per gram body weight of tritiated-thymidine (intra peritoneal) to label DNA synthesis. • 5. At 24 hours from the start of ointment application, animals were euthanized using cervical dislocation under anesthesia provided by pentobarbital injection. […] DNA synthesis was assayed by scintillation counting in Ready Safe scintillation cocktail (Beckman), and the concentration of DNA in each sample was assayed using a fluorescence assay (calibrated against a standard curve). The data were calculated as DNA synthesis per microgram of DNA in each sample. […]
# [3] = tested on: back muscle tissue homogenate; experiment: EPR assay of NO release, back muscle homogenate; type: biochemical, mouse
# Description: as §2, §3
# [4] = 0.25% carisoprodol, 1% DETA, topical, FIG. 8
# [5] = 1% methocarbamol, 0.2% ISDN ointment, topical 24 h, FIG. 7
# [6] = back muscle, topical ointment on back, 24 h, DNA synthesis per microgram of DNA
# [7] = gut (positive control tissue), topical ointment on back, 24 h, per microgram of DNA
# [8] = heart (negative control tissue), topical ointment on back, 24 h, per microgram of DNA
# [9] = quadriceps, topical ointment on back, 24 h, DNA synthesis per microgram of DNA
smiles,measurement,setting,value
"NCCN(CCN)/[N+]([O-])=N/O [DETA, diethylenetriamine-NONOate]",DNA synthesis in back muscle (in words),normal C57Black/6 mice; [4],induce increased DNA synthesis
same,DNA synthesis in quadriceps (in words),normal C57Black/6 mice; [4],induce increased DNA synthesis
"NCCCN(CCCN)/[N+]([O-])=N/O [DPTA, dipropylenetriamine-NONOate]",DNA synthesis (3H-thymidine incorporation) compared to a control muscle,[1],stimulate an increase in DNA synthesis
"O=[N+]([O-])O[C@H]1CO[C@H]2[C@@H]1OC[C@H]2O[N+](=O)[O-] [ISDN, isosorbide dinitrate]",DNA synthesis in back muscle (in words),normal C57Black/6 mice; [5],increase in DNA synthesis
same,DNA synthesis (3H-thymidine incorporation) compared to a control muscle,[1],stimulate an increase in DNA synthesis
"COC(=O)[C@@H](N)CCCNC(=N)N[N+](=O)[O-] [L-NAME, L-nitro-arginine methyl ester]",DNA synthesis in EDL muscles in culture,[2],decreased DNA synthesis
"COc1ccccc1OCC(O)COC(N)=O (stereo not shown) [MC, methocarbamol]",DNA synthesis in back muscle (in words),normal C57Black/6 mice; [5],increase in DNA synthesis
same,"DNA synthesis, Back Muscle, Mean","normal C57Black/6 mice; back muscle, mean of experiments, outliers (*) excluded, MC/ISDN mean covers samples (a) and (b)",427.5
same,"DNA synthesis, Back Muscle, Experiment 1",normal C57Black/6 mice; [6],430.5
same,"DNA synthesis, Back Muscle, Experiment 2",normal C57Black/6 mice; [6],734*
same,"DNA synthesis, Back Muscle, Experiment 3",normal C57Black/6 mice; [6],422.7
same,"DNA synthesis, Back Muscle, Experiment 4",normal C57Black/6 mice; [6],429.43
same,"DNA synthesis, Gut, Experiment 2",normal C57Black/6 mice; [7],123
same,"DNA synthesis, Gut, Experiment 3",normal C57Black/6 mice; [7],239.2
same,"DNA synthesis, Gut, Experiment 4",normal C57Black/6 mice; [7],225.9
same,"DNA synthesis, Gut, Mean","normal C57Black/6 mice; gut, mean of experiments, MC/ISDN mean covers samples (a) and (b)",196.0
same,"DNA synthesis, Heart, Experiment 2",normal C57Black/6 mice; [8],186
same,"DNA synthesis, Heart, Experiment 3",normal C57Black/6 mice; [8],221.3
same,"DNA synthesis, Heart, Experiment 4",normal C57Black/6 mice; [8],240.76
same,"DNA synthesis, Heart, Mean","normal C57Black/6 mice; heart, mean of experiments, MC/ISDN mean covers samples (a) and (b)",216.0
same,"DNA synthesis, Quadriceps, Mean","normal C57Black/6 mice; quadriceps, mean of experiments, MC/ISDN mean covers samples (a) and (b)",456.3
same,"DNA synthesis, Quadriceps, Experiment 1",normal C57Black/6 mice; [9],507
same,"DNA synthesis, Quadriceps, Experiment 2",normal C57Black/6 mice; [9],573
same,"DNA synthesis, Quadriceps, Experiment 3",normal C57Black/6 mice; [9],404.1
same,"DNA synthesis, Quadriceps, Experiment 4",normal C57Black/6 mice; [9],340.9
"COc1ccccc1OCC(CO[N+](=O)[O-])O[N+](=O)[O-] (stereo not shown) [MyoNovin, 1,2-di-O-nitro-3(o-methoxyphenoxy)-propanediol]",DNA synthesis in EDL muscles in culture,[2],increased DNA synthesis
same,"side effects to animal behaviour, appearance or weight","normal C57Black/6 mice; transdermal MyoNovin, 24 h, normal mice",no apparent side effects
same,increase in muscle cell proliferation (DNA synthesis),"normal C57Black/6 mice; transdermal, over a 24-hour period, normal mice, FIG. 17",37-39%
same,NO release (EPR),liver tissue homogenate,strong release of NO
same,DNA synthesis in back muscle compared to the control,mdx dystrophic mice,decreased
same,NO release (EPR),"[3]; back muscle homogenate, MGD spin-trap, 1 hour at 37° C., FIG. 20",strong release of NO
same,time-course of NO release,"[3]; back muscle homogenates, FIG. 21",more than two hours
CCCC(C)(COC(N)=O)COC(=O)NC(C)C (stereo not shown) [carisoprodol],DNA synthesis in back muscle (in words),normal C57Black/6 mice; [4],induce increased DNA synthesis
same,DNA synthesis in quadriceps (in words),normal C57Black/6 mice; [4],induce increased DNA synthesis
